What was measured:
KB = assay: Antiproliferative activity against human KB cells; type: functional, cell-based
A2780 [1] = assay: Antiproliferative activity against human A2780 cells; type: functional, cell-based
P388 [2] = assay: Antiproliferative activity against mouse P388 cells; type: functional, cell-based
[3] = Antiproliferative activity against endothelial cells; type: cell-based; settings: Endothelial cell
A2780 [4] = assay: Ratio of IC50 for human KB cells to IC50 for human A2780 cells; type: functional
P388 [5] = assay: Ratio of IC50 for mouse P388 cells to IC50 for human A2780 cells; type: functional
A2780 [6] = assay: Ratio of IC50 for endothelial cells to IC50 for human A2780 cells

For `C/C=C/C(O)C/C=C/C[C@H](C)[C@@H](O)CC(=O)NC[C@H](O)[C@H](C)C(=O)NCCC[C@H]1O[C@@]2(CCC[C@@H](CC[C@H](C)/C=C(\C)C(C)=O)O2)CC[C@@H]1C` (some centres undefined), the IC50 (KB) was 45 nM, the IC50 (A2780 [1]) was 340 nM and the IC50 (P388 [2]) was 20 nM. For the same compound, the IC50 [3] was 22 nM, the “Ratio IC50” value (A2780 [4]) was 10 and the “Ratio IC50” value (P388 [5]) was 10. The “Ratio IC50” value (A2780 [6]) was 10.
Compound `C/C=C/C(=O)C[C@H]1CC[C@H](C)[C@H](CC(=O)NC[C@H](O)[C@H](C)C(=O)NCCC[C@H]2O[C@@]3(CCC[C@H](CC[C@H](C)/C=C(\C)[C@H](C)O)O3)CC[C@@H]2C)O1` [BISTRAMIDE A] has an IC50 (KB) of 45 nM, an IC50 (A2780 [1]) of 260 nM and an IC50 (P388 [2]) of 20 nM. The IC50 [3] was 22 nM, the “Ratio IC50” value (A2780 [4]) was 10 and the “Ratio IC50” value (P388 [5]) was 10. The “Ratio IC50” value (A2780 [6]) was 10.

From ChEMBL document CHEMBL1152394, “Antiproliferative bistramides from Trididemnum cyclops from Madagascar (1)” (J Nat Prod, 2009)
